These results are taken from patent US12485118B2, “Combinations of GLP-1R and THRβ agonists and methods of use thereof” (Terns Pharmaceuticals, Inc., priority 2023, dated 2025).

The structures appear in SMILES notation. Entries after “also recorded” stand apart in the source; their conditions may differ. Like-named read-outs stand apart in the source and are kept apart here.

The subject of data set [1] is male DIO mice. The experiment in a line: 6 weeks of Compound 9 alone and in combination with semaglutide: body weight, food intake, body composition (EchoMRI) in male DIO mice at thermoneutrality. The format is in vivo, mouse. Conditions: Compound 9 6 mg/kg PO combined with Semaglutide 30 nmol/kg SC. The method, then:
(§1) Male C57BL/6JRj mice (5 weeks of age, n=70) were fed a high fat diet (n=60, 60% HFD, D12492, Ssniff) for 24 weeks, or a lean-chow diet (n=10, Altromin 1324) before treatment start. HFD animals were randomized during week -1 based on body weight, glucose levels and fat tissue mass into 5 treatments groups. Lean mice (group 1) were treated with vehicle (QD+QD, PO+SC) and DIO mice were treated (QD+QD, PO+SC) as follow: group 2 received vehicle (PO+SC), group 3 received Compound 9 6 mg/kg, PO+vehicle (SC), group 4 received Semaglutide (30 nmol/kg, SC)+vehicle (PO), group 5 received Compound 9 (6 mg/kg, PO)+Semaglutide (30 nmol/kg, SC) and group 6 received Tirzepatide (30 nmol/kg, SC)+vehicle (PO). Body weight, food and water intake were measured daily from day -3, body composition (EchoMRI) was measured during week -1 and week 6; energy expenditure was assessed at study day 5-7 and at study day 34-36. Fasting blood glucose and insulin levels were measured at baseline and termination, while an oral glucose tolerance test was performed at week 4. At termination, the M gastrocnemius muscle was weighted and collected for RNAseq analysis, while plasma, brain, liver, BAT, epidydimal and subcutaneous WAT depots were collected for sponsor.

Data set [2] relates to male DIO mice. Put plainly: Energy expenditure (heat production, RER, oxygen consumption) in male DIO mice at thermoneutrality. The format is in vivo, mouse. The protocol: as §1
Data set [3] deals with male DIO mice. Put plainly: Glycemic control: oral glucose tolerance test and plasma insulin in male DIO mice at thermoneutrality. Conditions: week 6. Format: in vivo, mouse. The method, then:
On the day of the OGTT, random blood glucose and body weight of the mice are measured, mice are dosed with corresponding compounds or vehicle in the morning before fasting, then the mice are fasted for 6 hours, basal fasting glucose is measured by tail vein nick thereafter. Glucose is orally gavaged with 2 g/kg at a dose volume of 5 mL/kg. Blood glucose levels are measured at 0 (pre-dose), 15-, 30-, 60-, and 120-min post glucose dosing. The second dose is administrated after OGTT treatment.
Male C57BL/6JRj mice (5 weeks of age, n=70) were fed a high fat diet (n=60, 60% HFD, D12492, Ssniff) for 24 weeks, or a lean-chow diet (n=10, Altromin 1324) before treatment start. HFD animals were randomized during week -1 based on body weight, glucose levels and fat tissue mass into 5 treatments groups. […] Body weight, food and water intake were measured daily from day -3, body composition (EchoMRI) was measured during week -1 and week 6; energy expenditure was assessed at study day 5-7 and at study day 34-36. Fasting blood glucose and insulin levels were measured at baseline and termination, while an oral glucose tolerance test was performed at week 4. […]

Data set [4] deals with uncoupling protein 1 (UCP-1) expression in subcutaneous adipose tissue. Put plainly: UCP-1 expression in subcutaneous adipose tissue of DIO mice. The format is in vivo, mouse. The protocol: Body weight, food and water intake are measured daily. Body composition is measured using EchoMRI. Subcutaneous fat is collected and weighed at study termination.
as §1, with “At termination, the M gastrocnemius muscle was weighted and collected for RNAseq analysis, while plasma, brain, liver, BAT, epidydimal and subcutaneous WAT depots were collected for sponsor.” left out

Another data set relates to DIO hGLP-1R mice. The experiment in a line: Compound 9 in combination with orforglipron in DIO hGLP-1R mice: body weight, food intake, body mass composition, subcutaneous fat, liver weight. The format is in vivo, mouse. The conditions noted are these: Compound 9 3 mg/kg, orforglipron 0.2 and 2 mg/kg, combination 3 + 0.2 mg/kg; for body weight changes from baseline over time: PO QD 21 days; for terminal subcutaneous fat: study termination. The method, then:
DIO hGLP-1R mice were housed at room temperature (21-25° C.) with a relative humidity of 40-70%. Temperature and relative humidity were monitored and recorded twice daily. An electronic time-controlled lighting system was used to provide a 12 h light/12 h dark cycle, 19:00 pm-7:00 am, lights out and enrichment toys were provided. The mice were fed high fat diet (HFD, Research Diets 12492, 60% kca, 1% fat) for >50 weeks to induce obesity. Mice were acclimated to once-daily (QD) oral dosing (per os, PO) for 1 week with body weight and food intake measured on consecutive 4 days prior to dosing start (Day 1). Body mass composition was measured by EchoMRI (Bruker Minispec LF90II) on Day 0 and mice were randomized to treatment groups (Table 5-1) based on baseline body weight, food intake, and body composition.
Body mass composition was assessed on Day 19. […] Subcutaneous fat was collected and weighed at study termination.

Data set [5] can be described thus: Plasma pharmacokinetics of Compound 9 and orforglipron in DIO hGLP-1R mice. The conditions noted are these: for AUC(0-t) / Cmax: hGLP-1R transgenic (expressing human GLP-1R). The method, then: Test compounds were formulated in vehicle (10% [v/v]Solutol HS15+90% [v/v]saline) and mice were treated QD PO for 21 days with vehicle, Compound 9 (3 mg/kg), orforglipron (0.2 and 2 mg/kg), and Compound 9 (3 mg/kg) in combination with orforglipron (0.2 mg/kg). Body weight and food intake were measured daily, and mice were maintained on HFD throughout the study period. On Day 20 of the study, plasma samples were collected at predose (O), 2-, 4-, 8-, and 24-hours postdose for pharmacokinetic analyses of Compound 9, orforglipron, and combination treatment groups. Body mass composition was assessed on Day 19. Liver was collected and weighed at study termination and portions were preserved for steatosis assessment by histology. Subcutaneous fat was collected and weighed at study termination. A sample of subcutaneous fat tissue was assessed for UCP-1 expression by qPCR and Western blot analyses.

The next data set has as its system humans. The conditions noted are these: cited from earlier work.
In the next data set the target is T1, rodent GLP-1R (Mus musculus, UniProt O35659).
T1 sequence (O35659 22-463): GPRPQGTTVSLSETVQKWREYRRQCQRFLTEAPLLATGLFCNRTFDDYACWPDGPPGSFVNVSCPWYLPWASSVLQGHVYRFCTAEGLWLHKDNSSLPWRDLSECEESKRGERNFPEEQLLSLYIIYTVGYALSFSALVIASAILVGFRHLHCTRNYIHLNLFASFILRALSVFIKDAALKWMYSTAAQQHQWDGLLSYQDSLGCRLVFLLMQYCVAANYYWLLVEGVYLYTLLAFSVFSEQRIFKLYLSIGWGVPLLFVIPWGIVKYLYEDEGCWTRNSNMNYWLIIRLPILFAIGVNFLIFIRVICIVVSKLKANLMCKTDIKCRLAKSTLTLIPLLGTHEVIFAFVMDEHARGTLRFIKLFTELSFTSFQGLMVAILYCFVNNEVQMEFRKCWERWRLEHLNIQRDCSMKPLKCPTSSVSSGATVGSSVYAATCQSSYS
Conditions: cited from earlier work.

With `N#Cc1nn(-c2cc(Cl)c(Oc3n[nH]c(=O)c4ccccc34)c(Cl)c2)c(=O)[nH]c1=O` [Compound 9, 2-(3,5-dichloro-4-((4-oxo-3,4-dihydrophthalazin−1-yl)oxy)phenyl)-3,5-dioxo-2,3,4,5-tetrahydro-1,2,4-triazine-6-carbonitrile], the average food intake entry in the data set on male DIO mice [1] is “normalized semaglutide-induced reduction in food intake”. Besides, the heat production entry with male DIO mice [2] (after 5 weeks of treatment) is “increased both dark and light-phase heat production”. Also, in the data set on male DIO mice [2] (assessed after week 4), the “energy expenditure (EE)” value is “restored energy expenditure to normal (DIO Veh) levels when combined with semaglutide”. Also, the plasma insulin level entry in the data set with male DIO mice [3] is “increased”. Besides, the “uncoupling protein 1 (UCP-1) expression” value in data set [4] is listed as “partially restored the obesity induced lowering of UCP-1”. Besides, in the data set with DIO hGLP-1R mice (Day 19, PO QD), the “fat mass change from baseline” value is reported as “remained relatively unchanged” and the “lean mass change from baseline” value is “negligible”. Moreover, in the data set with DIO hGLP-1R mice, the “body weight changes from baseline over time” value is recorded as “remained relatively unchanged; also recorded: comparable to a 10-fold higher dose of orforglipron as monotherapy”. In the data set with DIO hGLP-1R mice (PO QD), the terminal subcutaneous fat entry is on record as “not significantly different from mice treated with vehicle”. Also, in data set [5] (mouse, in vivo, po, 3 mg/kg), the AUC(0-t) (usually exposure summed from dosing to a finite time, without extrapolation to infinity) stood at 19000 ng·h/mL and the Cmax (as a rule, the peak of the concentration-time curve) was 2480 ng/mL. The “exposure (dose proportionality, effect of combination)” value in data set [5] (mouse, in vivo, po) is recorded as “unaffected when dosed in combination with orforglipron”.

As for `Cc1cc(-n2nc3c(c2-n2ccn(-c4ccc5c(cnn5C)c4F)c2=O)[C@H](C)N(C(=O)c2cc4cc([C@H]5CCOC(C)(C)C5)ccc4n2[C@@]2(c4noc(=O)[nH]4)C[C@@H]2C)CC3)cc(C)c1F` [orforglipron], the “fat mass change from baseline” value with DIO hGLP-1R mice (Day 19, PO QD) is listed as “dose-dependent decrease in fat mass”. Besides, the “body weight changes from baseline over time” value in the data set on DIO hGLP-1R mice is “dose-dependent body weight decreases over time”. In the data set on DIO hGLP-1R mice (PO QD), the daily food intake result was “profoundly reduced in a dose-dependent manner during the first few days”. In addition, the terminal subcutaneous fat entry in the data set on DIO hGLP-1R mice (PO QD) is on record as “dose-dependent decrease in subcutaneous fat, although only the high dose was significantly different from vehicle treatment”. Further, the “unbound exposure AUC24h,u” value in data set [5] (0.2 mg/kg daily in mice, equivalent to 6 mg/day in humans) is about 0.300 ng·h/mL; in data set [5] (2 mg/kg daily in mice, equivalent to 45 mg/day in humans) it was about 1.60 ng·h/mL. Also, the area under the curve AUC(0-t) in data set [5] (mouse, in vivo, po, 0.2 mg/kg) worked out at 543 ng·h/mL; in data set [5] (mouse, in vivo, po, 2 mg/kg) it was 2670 ng·h/mL. The Cmax in data set [5] (mouse, in vivo, po, 0.2 mg/kg) worked out at 47.4 ng/mL; in data set [5] (mouse, in vivo, po, 2 mg/kg), 251 ng/mL. For the same molecule, the “exposure (dose proportionality, effect of combination)” value was “increased in a less than dose-proportional manner” in data set [5] (mouse, in vivo, po) and “largely unaffected when dosed in combination with Compound 9” in data set [5] (plasma, Day 20, PO QD). In addition, the “occurrence of total adverse events compared to placebo, OR” value in the data set with humans (12 mg daily dose) was 2.49 (95% CI: 1.25, 4.98); in the data set with humans (24 mg daily dose) it was 2.23 (95% CI: 1.13, 4.43); in the data set with humans (36 mg daily dose), 2.04 (95% CI: 1,08,3.84); in the data set on humans (45 mg daily dose), 2.96 (95% CI: 1.41, 6.21). Moreover, the “change in body weight at week 26” value in the data set on humans (45 mg daily compared to 12, 24 or 36 mg/day) was “highest change in body weight”. Further, in the data set with humans (all doses (12, 24, 36, 45 mg daily)), the “total adverse events compared to placebo” value is given as “significantly higher”. Besides, the “activity on rodent GLP-1R” value at rodent GLP-1R was “inactive”.
